Measured values as given in US20240101510A1, “APYRASE INHIBITORS” (Texas Crop Science, priority 2022, published 2024).

Tests used:
apyrase = test: In vitro apyrase assay (screen for apyrase inhibitors, phosphate release read at 630 nm); assay type: biochemical; conditions: inhibitor conc at 1 mM; 1 hr at room temperature; rounded average of two assay results
Method: Method 1: In Vitro Apyrase Assay: Apyrase inhibitors useful as enhancers of pesticidal activity are assessed using an in vitro assay. The method of Windsor, Bio Techniques 33:1024-1030 (November 2002) was used as follows: Screen for Apyrase Inhibitors - 96 well plates were used for the assay: (Greiner bio-one: REF-655901-96 well, PS, F-bottom, Clear, Non-binding) Buffers: • Reaction Buffer: 60 mM Hepes; 3 mM MgCl2, 3 mM CaCl2 and 3 mM ATP (pH 6.5) • Development Buffer A: 2% aqueous ammonium molybdate • Development Buffer B: 11% ascorbic acid in 37.5% TCA in water • Stop buffer C: 2% trisodium citrate in 2% acetic acid solution in water • Add 100 μl of reaction buffer to each well. • Add […] (control) or inhibitor/compound or compounds such as […] or orthovanadate to each well. […] A blank cell indicates either <10% observed inhibition or a large difference between repetitions. In certain examples, the lack of observed inhibition is due to a lack of solubility of the compound under assay conditions, rather than a lack of apyrase inhibitory activity. Roux compound 15 inhibited apyrase in this assay at about 60%.

Microdochium nivale = test: In vitro assessment of combination activity with fungicides on agar; assay type: cell-based; conditions: fungicide at a rate just below that giving any control; visual assessment of % control;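 also: scored as inactive or active or highly active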
Method: (§1) Method 2: In Vitro Assessment of Combination Activity
(§2) Selected compounds were assessed in combination with fungicides against a range of commercially important plant pathogenic fungi.
(§3) The test was conducted as follows. A fungicide was applied to a fungal plant pathogen at a rate slightly below that at which it gave any control, in combination with a suitable dose of the test compound. The test compound was recorded as active if control of the pathogen was observed.
(§4) In more detail, the test was conducted as follows. For each combination of fungicide, pathogen and test compound, the following wells were used. Well 1 contained a fungal pathogen growing on agar, and a fungicide at a rate just below that at which it gave any control of the pathogen. Well 2 was the same as Well 1, except that the test compound was also added at Rate 1. Well 3 was the same as Well 2, except that the test compound was added at Rate 2, where Rate 2 was higher than Rate 1. Finally, as a benchmark, Well 4 was the same as Well 1, except that it contained the fungicide at a higher rate, at which it gave partial control of the pathogen. Each of the Wells 1 to 4 were run in duplicate, giving a total of 8 wells for each combination of fungicide, pathogen and test compound. For each well, after a suitable period of incubation, a visual assessment of the % control of the pathogen by the fungicide was made.
(§5) The following fungicides were used in this assay: azoxystrobin, fluxapyroxad, and desthio prothioconazole. The following fungal pathogens were used in this assay. First, a strain of Zymoseptoria tritici with a reduced susceptibility to strobilurin fungicides; second a strain of Zymoseptoria tritici with a reduced susceptibility to SDHI fungicides (i.e., those that inhibit succinate dehydrogenase); and third, Microdochium nivale.

[1] = system: Zymoseptoria tritici with a reduced susceptibility to SDHI fungicides; test: as above; assay type: cell-based; conditions: fungicide at a rate just below that giving any control; visual assessment of % control;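 also: scored as inactive or active or highly active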
Method: as §1, §2, §3, §4, §5

[2] = system: Zymoseptoria tritici with a reduced susceptibility to strobilurin fungicides; test: as above; assay type: cell-based; conditions: fungicide at a rate just below that giving any control; visual assessment of % control;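 also: scored as inactive or active or highly active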
Method: as §1, §2, §3, §4, §5

[3] = system: Botrytis cinerea on tomatoes; test: Greenhouse crop test in combination with commercial fungicide; assay type: in vivo; conditions: test compound at 20 ppm
Method: (§6) Method 3: Greenhouse Crop Tests
(§7) In this method, exemplary compounds were evaluated for their ability to control Zymoseptoria tritici on wheat, Botrytis cinerea on tomatoes, Asian Soya Rust (Phakopsora pachyrhizi) on soybean, and Brown Rust (Puccinia recondita) on wheat, in a controlled greenhouse environment in combination with one of four fungicides, Amistar, Imtrex, Proline or Balaya. In these studies, soybean cultivar Siverka, tomato (Money maker) and wheat plants (JB Diego) were used. Seeds were sown in 9 cm diameter pots to a depth of 1 to 2 cm using Petersfield potting compost (75% medium grade peat, 12% screened sterilized loam, 3% medium grade vermiculite, 10% grit (5 mm screened, lime free), 1.5 kg PG mix per m3, lime to pH5.5-6.0 and wetting agent (Vitax Ultrawet 200 ml per m3) and germinated/grown at 23° C. under a 16 h day/8 h night light regime. Plants were treated two to three weeks after sowing when they were at the BBCH 11 growth stage (first pair of true leaves (unifoliate) unfolded. A track sprayer was used to treat the plants with the mixture of commercial fungicide and test compound using a water volume of 200 L/ha. Plants were inoculated with the appropriate fungi (pathogen) 24 hours after treatment. Fungal pathogens used were Botrytis cinerea (Grey mold on tomato plants), Zymoseptoria tritici (Septoria leaf blotch on wheat plants), Puccinia triticina (Brown rust on wheat plants) and Phakopsora pachyrhyzi (Asian soy rust on soybean plants). Four replicates were used for each combination of fungicide, pathogen and test compound. Each plant was evaluated once the disease symptoms were fully expressed between seven to twenty days (depending on the pathogen) for % control of the disease. Appropriate controls were used for all experiments, including an ‘inoculation check’ wherein plants were inoculated with their specific pathogen to assess disease levels. Also, each commercial fungicide was tested on its own as a part of each treatment, this being benchmark against which the experimental compounds were evaluated. […] That is, the present compounds, although not fungicidal by themselves, enhance the activity of fungicides.
(§8) In these studies the fungicide was applied at the following rates

[4] = system: Zymoseptoria tritici on wheat; test: as above; assay type: in vivo; conditions: test compound at 20 ppm
Method: as §6, §7, §8

[5] = system: Brown Rust (Puccinia recondita) on wheat; test: as above; assay type: in vivo; conditions: Imtrex 0.35 L/ha; test compound at 20 ppm
Method: as §6, §7, §8

[6] = system: Asian Soya Rust (Phakopsora pachyrhizi) on soybean; test: as above; assay type: in vivo; conditions: test compound at 20 ppm
Method: as §6, §7, §8

[7] = Balaya 0.0015 L/ha, compared to Balaya alone or with Roux Compound 15 at 30 ppm

With C/C(=N\NC(=O)c1cccc(NS(C)(=O)=O)c1)c1ccc2ccccc2c1 [I-214, (E)-N-(3-(2-(1-(naphthalen-2-yl)ethylidene)hydrazine-1-carobnyl)phenyl)methanesulfonamide] the “% Inhibition of Apyrase” value (apyrase) was 55%, the “activity in combination with fluxapyroxad” value (Microdochium nivale) was “significant activity” and the “activity in combination with desthio prothioconazole” value [1] was “significant activity”. For the same compound, the “activity in combination with desthio prothioconazole” value [2] was “significant activity”, the “control of Botrytis by Balaya in combination with test compound” value [3, 7] was “notably superior control” and the “control of Botrytis by Imtrex in combination with test compound” value ([3]; Imtrex 0.005 L/ha, compared to Imtrex alone or with Roux Compound 15 at 30 ppm) was “notably superior control”. The “control of Zymoseptoria tritici by Amistar in combination with test compound” value ([4]; Amistar 0.1 L/ha, compared to Amistar alone or with Roux Compound 15 at 30 ppm) was “notably superior control”, the “control of Zymoseptoria tritici by Balaya in combination with test compound” value [4, 7] was “notably superior control” and the “control of Zymoseptoria tritici by Imtrex in combination with test compound” value ([4]; Imtrex 0.02 L/ha, similar to Imtrex with Roux Compound 15 at 15 and 30 ppm) was “superior control to Imtrex or Proline alone”. For the same compound, the “control of Zymoseptoria tritici by Proline in combination with test compound” value ([4]; Proline 0.0075 L/ha, compared to Proline alone and with Roux Compound 15) was “superior control to Imtrex or Proline alone”, the “activity of Imtrex against Brown Rust with addition of test compound” value [5] was “substantially enhanced” and the “activity of Amistar against Asian Soybean Rust with addition of test compound” value ([6]; Amistar 0.02 L/ha) was “substantially enhanced”. For the same compound, the “activity of Balaya against Asian Soybean Rust with addition of test compound” value ([6]; Balaya 0.03 L/ha) was “substantially enhanced” and the “activity of Proline against Asian Soybean Rust with addition of test compound” value ([6]; Proline 0.15 L/ha) was “substantially enhanced”.
